Measured values published in ChEMBL document CHEMBL2439966, “Development of novel ferulic acid derivatives as potent histone deacetylase inhibitors” (Bioorg Med Chem, 2013).

Assays:
[1] = target: Histone deacetylase; assay: Inhibition of HDAC in human HeLa cell nuclear extracts using Color de LysTM after 30 mins; type: protein assay
[2] = test system: MCF7; assay: cells; type: functional, cell-based; settings: Homo sapiens, MCF7, 48 h
Description: Growth inhibition of human MCF7 cells after 48 hrs by MTT assay

[3] = test system: MDA-MB-231; assay: cells; type: functional, cell-based; settings: Homo sapiens, MDA-MB-231, 48 h
Description: Growth inhibition of human MDA-MB-231 cells after 48 hrs by MTT assay

[4] = test system: HeLa; assay: cells; type: functional, cell-based; settings: Homo sapiens, 48 h
Description: Growth inhibition of human HeLa cells after 48 hrs by MTT assay

SMILES	IC50 [1]	IC50 [2]	IC50 [3]	IC50 [4]
COc1cc(/C=C/C(=O)NO)ccc1OCC(=O)Nc1ccc(F)c(Cl)c1	49.3 µM			
COc1cc(/C=C/C(=O)Nc2ccc(C)cc2N)ccc1OCC(=O)Nc1cc(C(F)(F)F)cc(C(F)(F)F)c1	71.4 µM			
COc1cc(/C=C/C(=O)NO)ccc1OCC(=O)Nc1cc(Br)cc(C(F)(F)F)c1	67.8 µM			
COc1cc(/C=C/C(=O)Nc2ccc(C)cc2N)ccc1OCC(=O)Nc1cc(Br)cc(C(F)(F)F)c1	7.43 µM	92.1 µM	> 100 µM	84.3 µM
COc1cc(/C=C/C(=O)Nc2ccccc2N)ccc1OCC(=O)Nc1cccc(F)c1	2.82 µM	> 100 µM	> 100 µM	28.1 µM
COc1cc(/C=C/C(=O)Nc2ccccc2N)ccc1OCC(=O)Nc1ccccc1F	73.7 µM			
COc1cc(/C=C/C(=O)NO)ccc1OCC(=O)Nc1cccc(F)c1	9.47 µM	39.5 µM	1.45 µM	34.5 µM
COc1cc(/C=C/C(=O)NO)ccc1OCC(=O)Nc1ccc(Cl)c(Cl)c1	43 µM			
COc1cc(/C=C/C(=O)Nc2ccc(C)cc2N)ccc1OCC(=O)Nc1ccc(Br)cc1	16.4 µM			
COc1cc(/C=C/C(=O)Nc2ccc(C)cc2N)ccc1OCC(=O)Nc1ccccc1F	11.6 µM			
COc1cc(/C=C/C(=O)Nc2ccc(C)cc2N)ccc1OCC(=O)Nc1cccc(C(F)(F)F)c1	15.1 µM			
COc1cc(/C=C/C(=O)Nc2ccccc2N)ccc1OCC(=O)Nc1ccc(Cl)c(Cl)c1	10.3 µM	> 100 µM	83.4 µM	72.1 µM
COc1ccc(NC(=O)COc2ccc(/C=C/C(=O)Nc3ccccc3N)cc2OC)cc1	8.95 µM	> 100 µM	48.5 µM	> 100 µM
COc1ccc(NC(=O)COc2ccc(/C=C/C(=O)NO)cc2OC)cc1	10.8 µM			
COc1cc(/C=C/C(=O)Nc2ccc(C)cc2N)ccc1OCC(=O)Nc1ccc(Cl)c(Cl)c1	64.5 µM			
COc1cc(/C=C/C(=O)NO)ccc1OCC(=O)Nc1cccc(C(F)(F)F)c1	12.5 µM			
COc1cc(/C=C/C(=O)Nc2ccccc2N)ccc1OCC(=O)Nc1cc(Br)cc(C(F)(F)F)c1	24.2 µM			
COc1cc(/C=C/C(=O)Nc2ccc(C)cc2N)ccc1OCC(=O)Nc1ccc(F)c(Cl)c1	15.4 µM			
COc1cc(/C=C/C(=O)NO)ccc1OCC(=O)Nc1ccccc1F	3.94 µM	> 100 µM	8.3 µM	11.1 µM
COc1cc(/C=C/C(=O)Nc2ccccc2N)ccc1OCC(=O)Nc1ccc(Br)cc1	12.8 µM			
COc1cc(/C=C/C(=O)NO)ccc1OCC(=O)Nc1ccc(Br)cc1	8.43 µM	73.6 µM	0.76 µM	> 100 µM
COc1cc(/C=C/C(=O)Nc2ccc(C)cc2N)ccc1OCC(=O)Nc1cccc(F)c1	66.6 µM			
COc1cc(/C=C/C(=O)Nc2ccccc2N)ccc1OCC(=O)Nc1cccc(C(F)(F)F)c1	49.6 µM			
COc1cc(/C=C/C(=O)NO)ccc1OCC(=O)Nc1cc(C(F)(F)F)cc(C(F)(F)F)c1	10.5 µM			
COc1cc(/C=C/C(=O)Nc2ccccc2N)ccc1OCC(=O)Nc1ccc(F)c(Cl)c1	11.5 µM			
COc1ccc(NC(=O)COc2ccc(/C=C/C(=O)Nc3ccc(C)cc3N)cc2OC)cc1	118 µM			
COc1cc(/C=C/C(=O)Nc2ccccc2N)ccc1OCC(=O)Nc1cc(C(F)(F)F)cc(C(F)(F)F)c1	7.8 µM	43.1 µM	25.3 µM	20.8 µM
